Reference: patent US8227428B2, “Anti-infammatory macrolide” (Glaxo Group Limited, priority 2009, dated 2012)

Key:
[1] = Stability in buffer solutions pH 2 to pH 8 at 25° C.; type: physicochemical
Procedure: (§1) Stability in buffer solutions pH 2 to pH 8 at 25° C., and in bio-relevant media (SGF pH 1.6, Fasted SIF pH 6.5 and Fed SIF pH 5.0) at 37° C., during 24 hours is monitored. The samples are analysed by LC/MS.
Buffer Solutions and Physiologically Relevant Media Used in Stability Assay:
LC Conditions: Instrument HP1100
Column: Waters XBridge C18, 2.1×50 mm, 3.5 μm
Guard column: Waters XBridge C18, 2.1×10 mm, 3.5 μm
• A) 0.1% HCOOH/H2O • B) 0.1% HCOOH/CH3CN Gradient Timetable: […]
(§2) Flow: 0.3 mL/min Column temp.: 25° C. Sample temp.: 25° C. (for stability assay in buffer solutions) • 37° C. (for stability assay in bio-relevant media) Injector volume: 3 μL (without injection program) MS Conditions: Instrument HP MS API-ES, positive ion mode Mass Range: 150-1500 Fragmentor: 100 Gain: 1.0 Treshold: 150 Step size: 0.20 Gas Temperature: 350° C. Drying Gas Flow: 13 L/min Nebulizer Pressure: 35 psig Capillary Voltage Positive 4000 V • Negative 4000 V Sample Preparation: a) For Stability Assay in Buffer Solutions
Compounds are dissolved in CH3CN to produce a 1 mg/mL stock solution. The stock solution is diluted to a concentration of 0.2 mg/mL (1 mL solution in 4 mL buffer) with appropriate buffer to produce a working solution.
Each solution at each pH is then dispatched into vials that are sealed and stored at room temperature in order to be analyzed at the proper time point. Before analysis, pH values of prepared sample solutions are checked and adjusted if neccessary.

[2] = Stability in bio-relevant media (SGF, Fasted SIF, Fed SIF) at 37° C.; type: physicochemical
Procedure: as §1
SGF (Simulated Gastric Fluid) pH 1.6
Fasted SIF (Simulated Intestinal Fluid) pH 6.5
Fed SIF (Simulated Intestinal Fluid) pH 5.0
as §2
b) For Stability Assay in Bio-Relevat Media
b1) For SGF Media pH 1.6 Testing:
Compounds are dissolved in SGF media pH 1.6 to give 0.2 mg/mL solution in case of compounds 1 and 2, and to give 0.1 mg/mL solution in case of compound 3. Solutions are then stored in a water bath at 37° C. and removed at the proper time point for LC/MS analysis. Before analysis, pH values of prepared sample solutions are checked and adjusted if necessary.
b2) For Fasted SIF Media pH 6.5 Testing:
(§3) Compounds are dissolved in Fasted SIF media pH 6.5 to give 2 mg/mL solution. Solutions are then dispatched into vials that are stored in a water bath at 37° C. and removed at the proper time point and diluted 10 times with CH3CN for LC/MS analysis. Before analysis, pH values of prepared sample solutions are checked and adjusted if necessary.
b3) For Fed SIF Media pH 5.0 Testing:
as §3, with “Fed” for “Fasted”, “5.0” for “6.5”, “40” for “10”

**Q.** For `CC[C@H]1OC(=O)[C@H](C)[C@@H](O[C@H]2C[C@@](C)(OC)[C@@H](OC(=O)CCN(CC)CC)[C@H](C)O2)[C@H](C)[C@@H](O[C@@H]2O[C@H](C)C[C@H](NC)[C@H]2O)[C@](C)(OC)C[C@@H](C)C(=O)N[C@H](C)[C@@H](O)[C@]1(C)O` [Example 2, 3′-N-Demethyl-4″-O-(3-diethylaminopropionoyl)-6-O-methyl-9a-aza-9a-homoerythromycin A], which “Percentage (Area %) of the compound observed in buffers” value (“Percentage (Area %) … in buffers” below) ([1]; pH 6, 25° C., 20 h) is on record?
**A.** Its value is 98.2 Area %.

**Q.** What about the “Percentage (Area %) … in buffers” value ([1]; pH 6, 25° C., 22 h) of the same compound?
**A.** The value was 98.2 Area %.

**Q.** And the “Percentage (Area %) … in buffers” value ([1]; pH 6, 25° C., 24 h)?
**A.** The value was 98.1 Area %.

**Q.** And the “Percentage (Area %) … in buffers” value ([1]; pH 6, 25° C., Initial)?
**A.** Its value is 100 Area %.

**Q.** What about the “Percentage (Area %) … in buffers” value ([1]; pH 7, 25° C., 2 h) of the same compound?
**A.** The value was 97.8 Area %.

**Q.** What about the “Percentage (Area %) … in buffers” value ([1]; pH 7, 25° C., 4 h) of the same compound?
**A.** Its value is 93.4 Area %.

**Q.** And the “Percentage (Area %) … in buffers” value ([1]; pH 7, 25° C., 6 h)?
**A.** The value was 89.8 Area %.

**Q.** What about the “Percentage (Area %) … in buffers” value ([1]; pH 7, 25° C., 8 h) of the same compound?
**A.** Its value is 89.3 Area %.

**Q.** What about the “Percentage (Area %) … in buffers” value ([1]; pH 7, 25° C., 12 h) of the same compound?
**A.** The value was 85.1 Area %.

**Q.** What about the “Percentage (Area %) … in buffers” value ([1]; pH 7, 25° C., 14 h) of the same compound?
**A.** The value was 84.3 Area %.

**Q.** What about the “Percentage (Area %) … in buffers” value ([1]; pH 7, 25° C., 18 h) of the same compound?
**A.** Its value is 84.0 Area %.

**Q.** And the “Percentage (Area %) … in buffers” value ([1]; pH 7, 25° C., 20 h)?
**A.** The value was 81.3 Area %.

**Q.** And the “Percentage (Area %) … in buffers” value ([1]; pH 7, 25° C., 22 h)?
**A.** The value was 79.9 Area %.

**Q.** And the “Percentage (Area %) … in buffers” value ([1]; pH 7, 25° C., 24 h)?
**A.** Its value is 78.4 Area %.

**Q.** What about the “Percentage (Area %) … in buffers” value ([1]; pH 7, 25° C., Initial) of the same compound?
**A.** Its value is 100 Area %.

**Q.** And the “Percentage (Area %) … in buffers” value ([1]; pH 8, 25° C., 2 h)?
**A.** The value was 92.0 Area %.

**Q.** What about the “Percentage (Area %) … in buffers” value ([1]; pH 8, 25° C., 4 h) of the same compound?
**A.** The value was 81.7 Area %.

**Q.** And the “Percentage (Area %) … in buffers” value ([1]; pH 8, 25° C., 6 h)?
**A.** Its value is 77.7 Area %.

**Q.** What about the “Percentage (Area %) … in buffers” value ([1]; pH 8, 25° C., 8 h) of the same compound?
**A.** Its value is 71.7 Area %.

**Q.** And the “Percentage (Area %) … in buffers” value ([1]; pH 8, 25° C., 12 h)?
**A.** Its value is 63.4 Area %.

**Q.** What about the “Percentage (Area %) … in buffers” value ([1]; pH 8, 25° C., 14 h) of the same compound?
**A.** The value was 60.2 Area %.

**Q.** What about the “Percentage (Area %) … in buffers” value ([1]; pH 8, 25° C., 18 h) of the same compound?
**A.** Its value is 54.2 Area %.

**Q.** And the “Percentage (Area %) … in buffers” value ([1]; pH 8, 25° C., 20 h)?
**A.** Its value is 51.1 Area %.

**Q.** And the “Percentage (Area %) … in buffers” value ([1]; pH 8, 25° C., 22 h)?
**A.** Its value is 47.1 Area %.

**Q.** What about the “Percentage (Area %) … in buffers” value ([1]; pH 8, 25° C., 24 h) of the same compound?
**A.** The value was 44.6 Area %.

**Q.** And the “Percentage (Area %) … in buffers” value ([1]; pH 8, 25° C., Initial)?
**A.** The value was 100 Area %.

**Q.** What about the “stability in bio-relevant media SGF pH 1.6 and Fasted SIF pH 6.5” value ([2]; 37° C., during 24 hours) of the same compound?
**A.** The value was “Example 2 showed instability in bio-relevant media SGF pH 1.6 and in Fasted SIF pH 6.5”.

**Q.** And the “Percentage (Area %) of the compound observed in Bio-relevant media” value (from here on “Percentage (Area %) … in Bio-relevant media”) ([2]; Fasted SIF pH 6.5, 37° C., 1 h)?
**A.** Its value is 99.6 Area %.

**Q.** And the “Percentage (Area %) … in Bio-relevant media” value ([2]; Fasted SIF pH 6.5, 37° C., 2 h)?
**A.** Its value is 98.0 Area %.

**Q.** And the “Percentage (Area %) … in Bio-relevant media” value ([2]; Fasted SIF pH 6.5, 37° C., 3 h)?
**A.** Its value is 93.0 Area %.

**Q.** And the “Percentage (Area %) … in Bio-relevant media” value ([2]; Fasted SIF pH 6.5, 37° C., 4 h)?
**A.** The value was 89.7 Area %.

**Q.** What about the “Percentage (Area %) … in Bio-relevant media” value ([2]; Fasted SIF pH 6.5, 37° C., 5 h) of the same compound?
**A.** Its value is 86.7 Area %.

**Q.** And the “Percentage (Area %) … in Bio-relevant media” value ([2]; Fasted SIF pH 6.5, 37° C., Initial)?
**A.** The value was 100 Area %.

**Q.** What about the “Percentage (Area %) … in Bio-relevant media” value ([2]; Fed SIF pH 5.0, 37° C., 1 h) of the same compound?
**A.** Its value is 99.7 Area %.

**Q.** What about the “Percentage (Area %) … in Bio-relevant media” value ([2]; Fed SIF pH 5.0, 37° C., 2 h) of the same compound?
**A.** The value was 99.6 Area %.

**Q.** And the “Percentage (Area %) … in Bio-relevant media” value ([2]; Fed SIF pH 5.0, 37° C., 3 h)?
**A.** The value was 99.4 Area %.

**Q.** And the “Percentage (Area %) … in Bio-relevant media” value ([2]; Fed SIF pH 5.0, 37° C., 4 h)?
**A.** The value was 98.7 Area %.

**Q.** And the “Percentage (Area %) … in Bio-relevant media” value ([2]; Fed SIF pH 5.0, 37° C., 5 h)?
**A.** The value was 98.6 Area %.

**Q.** What about the “Percentage (Area %) … in Bio-relevant media” value ([2]; Fed SIF pH 5.0, 37° C., 24 h) of the same compound?
**A.** Its value is 97.4 Area %.

**Q.** What about the “Percentage (Area %) … in Bio-relevant media” value ([2]; Fed SIF pH 5.0, 37° C., Initial) of the same compound?
**A.** The value was 100 Area %.

**Q.** What about the “Percentage (Area %) … in Bio-relevant media” value ([2]; SGF pH 1.6, 37° C., 15) of the same compound?
**A.** The value was 83.9 Area %.

**Q.** And the “Percentage (Area %) … in Bio-relevant media” value ([2]; SGF pH 1.6, 37° C., 1 h)?
**A.** Its value is 99.3 Area %.

**Q.** And the “Percentage (Area %) … in Bio-relevant media” value ([2]; SGF pH 1.6, 37° C., 2 h)?
**A.** Its value is 99.3 Area %.

**Q.** And the “Percentage (Area %) … in Bio-relevant media” value ([2]; SGF pH 1.6, 37° C., 3 h)?
**A.** Its value is 96.6 Area %.

**Q.** What about the “Percentage (Area %) … in Bio-relevant media” value ([2]; SGF pH 1.6, 37° C., 4 h) of the same compound?
**A.** Its value is 92.9 Area %.

**Q.** And the “Percentage (Area %) … in Bio-relevant media” value ([2]; SGF pH 1.6, 37° C., 5 h)?
**A.** Its value is 92.3 Area %.

**Q.** And the “Percentage (Area %) … in Bio-relevant media” value ([2]; SGF pH 1.6, 37° C., 6 h)?
**A.** Its value is 91.1 Area %.

**Q.** What about the “Percentage (Area %) … in Bio-relevant media” value ([2]; SGF pH 1.6, 37° C., 8 h) of the same compound?
**A.** The value was 90.1 Area %.

**Q.** And the “Percentage (Area %) … in Bio-relevant media” value ([2]; SGF pH 1.6, 37° C., 10 h)?
**A.** Its value is 87.2 Area %.

**Q.** What about the “Percentage (Area %) … in Bio-relevant media” value ([2]; SGF pH 1.6, 37° C., 12 h) of the same compound?
**A.** The value was 85.4 Area %.

**Q.** And the “Percentage (Area %) … in Bio-relevant media” value ([2]; SGF pH 1.6, 37° C., 18 h)?
**A.** Its value is 82.4 Area %.

**Q.** And the “Percentage (Area %) … in Bio-relevant media” value ([2]; SGF pH 1.6, 37° C., 21 h)?
**A.** The value was 81.0 Area %.

**Q.** And the “Percentage (Area %) … in Bio-relevant media” value ([2]; SGF pH 1.6, 37° C., Initial)?
**A.** The value was 100 Area %.
